Assay results reported in ChEMBL document CHEMBL1201862, “PubChem BioAssay data set” (2004).
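1) Cells in 96-well plates. 2) Compound, 48 h, 5 concentrations. 3) Linear interpolation between surrounding doses. 4) Unreached endpoint = highest concentration. GI50 = concentration required for 50% inhibition of growth.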 The source made the active and inactive calls. Cut-off read from the data, not from the text of the source: active = GI50 up to about 1.1 µM and inactive = higher.

Key:
Test in all cases: inhibition of tumour cell growth, NCI panel, 48 h
U-251 = system: U-251
CCRF-CEM = system: CCRF-CEM
HL-60 = system: HL-60
Malme-3M = system: Malme-3M
MDA-N = system: MDA-N
A549 = system: A549
SNB-75 = system: SNB-75
EKVX = system: EKVX
OVCAR-8 = system: OVCAR-8
SN12C = system: SN12C
NCI-H522 = system: NCI-H522
CAKI-1 = system: CAKI-1
NCI-H460 = system: NCI-H460
MDA-MB-435 = system: MDA-MB-435
SK-MEL-2 = system: SK-MEL-2
T47D = system: T47D
OVCAR-5 = system: OVCAR-5
SF-539 = system: SF-539
HCC 2998 = system: HCC 2998

Measured: GI50

O=C(O)C1C2C=CC(O2)C1C(=O)NCc1ccccn1 (stereo unspecified)
inactive: U-251 > 100 µM | CCRF-CEM > 100 µM | HL-60 > 100 µM | Malme-3M > 100 µM | MDA-N > 100 µM | A549 > 100 µM | SNB-75 > 100 µM | EKVX > 100 µM | OVCAR-8 > 100 µM | SN12C > 100 µM | NCI-H522 > 100 µM | CAKI-1 > 100 µM | NCI-H460 > 100 µM | MDA-MB-435 > 100 µM | SK-MEL-2 > 100 µM | T47D > 100 µM | OVCAR-5 > 100 µM | SF-539 > 100 µM

CCCCCC(=O)OCC1(CO)C/C(=C/CC(C(C)C)C(C)C)C(=O)O1 (stereo unspecified)
inactive: U-251 44.4 µM | CCRF-CEM 16.1 µM | Malme-3M 24.3 µM | MDA-N 34 µM | A549 51.1 µM | SNB-75 74 µM | EKVX > 75 µM | OVCAR-8 21.9 µM | SN12C 30.5 µM | HCC 2998 59.7 µM | NCI-H522 13.7 µM | CAKI-1 19.9 µM | NCI-H460 24.8 µM | MDA-MB-435 21.8 µM | SK-MEL-2 > 75 µM | T47D 52.6 µM | OVCAR-5 > 75 µM

CC(=O)O[C@H]1C[C@@H](OC(C)=O)[C@@](C)(O)[C@@H]2[C@@H](OC(C)=O)[C@@]3(O)[C@H](/C=C(/CCl)[C@H]4O[C@H]4[C@@H](OC(C)=O)[C@@]12C)OC(=O)[C@@H]3C
inactive: U-251 > 25 µM | CCRF-CEM 18.5 µM | Malme-3M > 25 µM | MDA-N 12 µM | A549 > 25 µM | SNB-75 > 25 µM | EKVX > 25 µM | OVCAR-8 > 25 µM | SN12C > 25 µM | HCC 2998 > 25 µM | NCI-H522 > 25 µM | CAKI-1 > 25 µM | NCI-H460 > 25 µM | MDA-MB-435 19.7 µM | SK-MEL-2 > 25 µM | T47D > 25 µM | OVCAR-5 > 25 µM

CCOc1cc(-c2nc3ccccn3c2/N=C/c2cc([N+](=O)[O-])cc([N+](=O)[O-])c2O)ccc1O
inactive: U-251 > 100 µM | CCRF-CEM 45 µM | HL-60 > 100 µM | Malme-3M > 100 µM | MDA-N > 100 µM | A549 > 100 µM | SNB-75 88.1 µM | EKVX > 100 µM | OVCAR-8 > 100 µM | SN12C > 100 µM | NCI-H522 > 100 µM | CAKI-1 > 100 µM | NCI-H460 > 100 µM | MDA-MB-435 > 100 µM | SK-MEL-2 > 100 µM | T47D > 100 µM | OVCAR-5 > 100 µM | SF-539 > 100 µM

Cc1ccc(NC(=O)/C(=N/N(C)C)C(C2OC(=O)c3ccccc32)[N+](=O)[O-])cc1 (stereo unspecified)
inactive: U-251 > 100 µM | CCRF-CEM > 100 µM | HL-60 > 100 µM | MDA-N > 100 µM | A549 > 100 µM | SNB-75 > 100 µM | OVCAR-8 > 100 µM | SN12C > 100 µM | HCC 2998 > 100 µM | CAKI-1 > 100 µM | NCI-H460 > 100 µM | MDA-MB-435 > 100 µM | SK-MEL-2 > 100 µM | T47D > 100 µM | OVCAR-5 > 100 µM | SF-539 > 100 µM

CCOC(=O)c1cn(-c2ccccc2)c(=S)n2c1nc1ccccc12
inactive: U-251 58.5 µM | CCRF-CEM 5.53 µM | MDA-N 41.1 µM | A549 42.9 µM | SNB-75 > 71.6 µM | EKVX 32.8 µM | OVCAR-8 24.4 µM | SN12C > 70.1 µM | HCC 2998 > 52.7 µM | CAKI-1 49 µM | NCI-H460 61.4 µM | MDA-MB-435 32.5 µM | SK-MEL-2 32.9 µM | T47D 80 µM | OVCAR-5 > 100 µM | SF-539 32.7 µM

N#CCCCCC12C3C(=O)N(c4ccccc4)C(=O)C3ON1O[C@@H]1C(=O)N(c3ccccc3)C(=O)[C@@H]12 (stereo partly specified)
inactive: U-251 > 100 µM | CCRF-CEM > 100 µM | HL-60 > 100 µM | Malme-3M > 100 µM | MDA-N > 100 µM | A549 > 100 µM | EKVX > 100 µM | OVCAR-8 > 100 µM | SN12C > 100 µM | HCC 2998 > 100 µM | NCI-H522 > 100 µM | CAKI-1 > 100 µM | NCI-H460 > 100 µM | MDA-MB-435 > 100 µM | T47D > 100 µM | OVCAR-5 > 100 µM | SF-539 > 100 µM

C=C1C(=O)O[C@H]2[C@H]1CC(=O)/C(C)=C/CC[C@@]1(C)O[C@@H]21
inactive: U-251 5 µM | Malme-3M 1.25 µM | A549 12.7 µM | SNB-75 16.7 µM | OVCAR-8 2.01 µM | SN12C 1.66 µM | HCC 2998 2.4 µM | NCI-H460 10.9 µM | MDA-MB-435 1.53 µM | SK-MEL-2 3.03 µM | OVCAR-5 2.15 µM | SF-539 2.08 µM
active: CCRF-CEM 0.0841 µM | MDA-N 0.259 µM | NCI-H522 0.256 µM | CAKI-1 0.53 µM | T47D 1.12 µM
